Measurements taken from patent US12391671B2, “Allosteric EGFR inhibitors and methods of use thereof” (Dana-Farber Cancer Institute, Inc., priority 2019, dated 2025).
Counter-ions that a name gives are not always drawn. Like-named read-outs stand apart in the source and are kept apart here.

Tests used:
[1] = target: EGFR L858R/T790M (Homo sapiens (Human), UniProt P00533, L858R/T790M); test: HTRF-based EGFR biochemical assay (L858R/T790M); conditions: 100 μM ATP, enzyme 0.02 nM
Method: (§1) Example 25: HTRF-Based EGFR Biochemical Assays
(§2) EGFR biochemical activity measurements were carried out using the homogeneous time-resolved fluorescence (HTRF) assay (Cisbio), inhibitors and DMSO normalizations were first dispensed to empty black low-volume 384-well plates (Corning) with 0300 digital liquid dispenser (HP). All reactions were carried out at room temperature and solutions were added to plates with a Multidrop Combi Reagent Dispenser (ThermoFisher). The reaction mixture (10 μL final volume) contained 1 μM tyrosine kinase peptide-biotin substrate and mutant EGFR in a reaction buffer (50 mM HEPES pH 7.0, 5 mM MgCl2, 1 mM MnCl2, 0.01% BSA, 2 mM TCEP, 0.1 mM NaVO4). Enzyme concentrations were adjusted to accommodate varying kinase activities (L858R 0.1 nM, L858R/T790M 0.02 nM). Enzyme reaction solution (2× concentrations, 5 μL) was added to 384-well plates containing compounds and incubated for 30 mins. Enzyme reactions were initiated with the addition of 5 μL of ATP to a final concentration of 100 μM and reacted for 20 mins. Reactions were quenched with the addition of 10 μL of phospho-tyrosine antibody-Europium(III) cryptate (1-to-180 volume ratio) and Streptavidin-XL665 (46.7 nM) in EDTA-containing detection buffer, then incubated at room temperature for 1 hour, and read with a PHERAstar plate reader (excitation=337 nm, emission=620 nm and 665 nm).

[2] = system: EGFR mutant L858R/T790M Ba/F3 cells; test: Ba/F3 cell proliferation model (Cell Titer Glo), EGFR L858R/T790M; assay type: cell-based, murine; conditions: 72 hours
Description: Example 26: Ba/F3 Cell Proliferation Models
The EGFR mutant L858R and L858R/T790M Ba/F3 cells have been previously described (Zhou, W., et al. Nature 462, 2009, 1070-1074). All cell lines were maintained in RPM 1640 (Cellgro; Mediatech Inc., Herndon. CA) supplemented with 10% FBS, 100 units/mL penicillin, 100 units/mL streptomycin. The EGFR I941R mutation was introduced via site directed mutagenesis using the Quick Change Site-Directed Mutagenesis kit (Stratagene; La Jolla, CA) according to the manufacturer's instructions. All constructs were confirmed by DNA sequencing. The constructs were shuttled into the retroviral vector JP1540 using the Cre-recombination system (Agilent Technologies, Santa Clara, CA). Ba/F3 cells were then infected with retrovirus per standard protocols, as described previously (Zhou, et al, Nature 2009). Stable clones were obtained by selection in puromycin (2 μg/ml).
Growth and inhibition of growth was assessed by the Cell Titer Glo® assay (Promega, Madison, WI) and was performed according to the manufacturer's instructions. The Cell Titer Glo® assay is a luminescence-based method used to determine the number of viable cells based on quantitation of the ATP present, which is directly proportional to the amount of metabolically active cells present. Ba/F3 cells of different EGFR genotypes were exposed to compounds as a single agent or in combination with 1 μg/mL cetuximab for 72 hours and the number of cells used per experiment was determined empirically as has been previously established (Zhou, et al., Nature 2009). All experimental points were set up in triplicates in 384-well plates and all experiments were repeated at least three times. […] The curves were fitted using a non-linear regression model with a sigmoidal dose response.

[3] = target: EGFR L858R (Homo sapiens (Human), UniProt P00533, L858R); test: HTRF-based EGFR biochemical assay (L858R); conditions: 100 μM ATP, enzyme 0.1 nM
EGFR L858R, sequence (P00533 25-1210 L858R): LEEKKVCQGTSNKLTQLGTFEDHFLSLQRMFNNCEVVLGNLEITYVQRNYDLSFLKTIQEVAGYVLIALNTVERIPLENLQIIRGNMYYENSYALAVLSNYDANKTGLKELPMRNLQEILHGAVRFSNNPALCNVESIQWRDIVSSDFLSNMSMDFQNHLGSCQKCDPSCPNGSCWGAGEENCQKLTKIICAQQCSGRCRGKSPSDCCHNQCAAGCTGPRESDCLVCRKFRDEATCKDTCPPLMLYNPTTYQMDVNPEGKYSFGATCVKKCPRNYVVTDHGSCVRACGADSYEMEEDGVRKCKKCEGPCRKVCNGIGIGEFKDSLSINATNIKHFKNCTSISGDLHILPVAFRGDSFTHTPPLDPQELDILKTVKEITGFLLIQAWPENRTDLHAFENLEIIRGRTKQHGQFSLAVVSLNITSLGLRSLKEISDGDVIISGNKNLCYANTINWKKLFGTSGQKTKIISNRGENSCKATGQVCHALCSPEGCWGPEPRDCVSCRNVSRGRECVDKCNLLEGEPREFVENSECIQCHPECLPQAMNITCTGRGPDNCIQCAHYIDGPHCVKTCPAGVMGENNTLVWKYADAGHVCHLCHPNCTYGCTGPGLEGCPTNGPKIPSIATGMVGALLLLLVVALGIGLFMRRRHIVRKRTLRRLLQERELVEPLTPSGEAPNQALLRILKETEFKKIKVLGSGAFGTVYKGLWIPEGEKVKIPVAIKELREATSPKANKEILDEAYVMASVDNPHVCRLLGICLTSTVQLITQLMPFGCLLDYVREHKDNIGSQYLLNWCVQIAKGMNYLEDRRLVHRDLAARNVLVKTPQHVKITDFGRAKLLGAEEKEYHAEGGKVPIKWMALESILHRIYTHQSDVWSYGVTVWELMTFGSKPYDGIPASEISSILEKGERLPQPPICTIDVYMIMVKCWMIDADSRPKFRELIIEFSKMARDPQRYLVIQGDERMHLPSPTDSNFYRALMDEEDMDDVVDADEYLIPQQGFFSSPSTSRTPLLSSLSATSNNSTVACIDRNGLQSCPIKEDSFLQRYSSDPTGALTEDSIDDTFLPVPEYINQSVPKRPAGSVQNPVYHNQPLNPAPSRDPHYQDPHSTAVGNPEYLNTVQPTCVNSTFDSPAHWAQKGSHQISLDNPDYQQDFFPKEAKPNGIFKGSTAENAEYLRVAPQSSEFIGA
Method: as §1, §2

[4] = Mus musculus, BaF3, single agent, read-out: Cell IC50 BaF3 EGFR L858R/T790M
[5] = in combination with 1 μg/mL cetuximab, read-out: Cell IC50 BaF3 EGFR L858R/T790M (+cetux.)

EGFR L858R/T790M, sequence (P00533 25-1210 T790M/L858R): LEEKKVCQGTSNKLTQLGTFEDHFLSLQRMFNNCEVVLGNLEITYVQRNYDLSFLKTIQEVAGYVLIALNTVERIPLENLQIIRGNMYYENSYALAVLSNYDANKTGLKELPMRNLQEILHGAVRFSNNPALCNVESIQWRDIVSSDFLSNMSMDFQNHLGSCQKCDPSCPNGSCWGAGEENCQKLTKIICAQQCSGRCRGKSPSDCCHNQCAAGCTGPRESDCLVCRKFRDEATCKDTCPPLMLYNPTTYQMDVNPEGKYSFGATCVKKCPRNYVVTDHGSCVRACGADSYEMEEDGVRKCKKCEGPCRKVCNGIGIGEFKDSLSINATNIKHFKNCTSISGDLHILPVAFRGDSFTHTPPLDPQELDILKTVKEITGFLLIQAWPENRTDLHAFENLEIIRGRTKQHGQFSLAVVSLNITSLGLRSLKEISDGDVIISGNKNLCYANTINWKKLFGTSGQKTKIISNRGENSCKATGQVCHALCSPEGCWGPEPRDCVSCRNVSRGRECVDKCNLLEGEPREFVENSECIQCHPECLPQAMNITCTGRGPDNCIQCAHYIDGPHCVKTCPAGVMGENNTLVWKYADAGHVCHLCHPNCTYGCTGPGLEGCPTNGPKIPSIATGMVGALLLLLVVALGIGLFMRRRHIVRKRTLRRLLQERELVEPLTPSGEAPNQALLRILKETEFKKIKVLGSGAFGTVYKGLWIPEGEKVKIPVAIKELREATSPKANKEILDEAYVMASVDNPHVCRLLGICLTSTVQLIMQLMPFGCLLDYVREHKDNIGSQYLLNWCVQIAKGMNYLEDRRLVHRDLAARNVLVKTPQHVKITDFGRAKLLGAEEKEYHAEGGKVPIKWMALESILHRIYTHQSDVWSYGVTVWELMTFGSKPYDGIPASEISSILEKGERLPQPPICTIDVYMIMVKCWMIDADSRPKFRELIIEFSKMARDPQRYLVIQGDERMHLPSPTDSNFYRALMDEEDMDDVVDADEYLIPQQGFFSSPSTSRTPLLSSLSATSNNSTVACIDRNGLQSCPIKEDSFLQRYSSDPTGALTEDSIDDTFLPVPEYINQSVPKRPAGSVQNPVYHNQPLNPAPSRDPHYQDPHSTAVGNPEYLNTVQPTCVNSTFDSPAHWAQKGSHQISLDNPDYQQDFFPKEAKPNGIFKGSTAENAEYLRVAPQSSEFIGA

SMILES | IC50 [1] [nM] | IC50 [2, 4] [nM] | IC50 [2, 5] [nM] | IC50 [3] [nM]
CN1CCC(c2ccc(-c3ccc4ncn(C(c5nc6ccccc6[nH]5)c5cc(F)ccc5O)c(=O)c4c3)cc2F)CC1 (stereo not shown) [Compound 001, 3-[1H-Benzimidazol-2-yl-(5-fluoro-2-hydroxy-phenyl)methyl]-6-[3-fluoro-4-(1-methyl-4-piperidyl)phenyl]quinazolin-4-one; hydrochloride] | 0.4 | 320 | 9 | 1
CN1CCC(c2ccc(-c3ccc4ncn(C(c5ccccc5)c5nc6ccccc6[nH]5)c(=O)c4c3)cc2)CC1 (stereo not shown) [Compound 002, 3-[1H-Benzimidazol-2-yl(phenyl)methyl]-6-[4-(1-methyl-4-piperidyl)phenyl]quinazolin-4-one] | 4 | 4450 | 140 | 17
CN1CCC(c2ccc(-c3ccc4ncn(C(c5ccccc5)c5nc6ccccc6[nH]5)c(=O)c4c3F)cc2)CC1 (stereo not shown) [Compound 003, 3-((1H-Benzo[d]imidazol-2-yl)(phenyl)methyl)-5-fluoro-6-(4-(1-methylpiperidin-4-yl)phenyl)quinazolin-4(3H)-one 2,2,2-trifluoroacetate] | 2 | 1400 | 50 | 9
CN1CCC(c2ccc(-c3ccc4ncn(C(c5cccc(F)c5)c5nc6ccccc6[nH]5)c(=O)c4c3F)cc2)CC1 (stereo not shown) [Compound 005, 3-((1H-Benzo[d]imidazol-2-yl)(3-fluorophenyl)methyl)-5-fluoro-6-(4-(1-methylpiperidin-4-yl)phenyl)-quinazolin-4(3H)-one 2,2,2-trifluoroacetate] | 1 | 1220 | 20 | 8
CN1CCC(C#Cc2ccc3c(c2)C(=O)N(C(c2nc4ccccc4[nH]2)c2cc(F)ccc2O)C3)CC1 (stereo not shown) [Compound 011, 2-[1H-benzimidazol-2-yl-(5-fluoro-2-hydroxy-phenyl)methyl]-6-[2-(1-methyl-4-piperidyl)-ethynyl]isoindolin-1-one; hydrochloride] | 10 | 1920 | 10 | 15
Nc1ccc(C#Cc2ccc3c(c2)C(=O)N(C(c2nc4ccccc4[nH]2)c2cc(F)ccc2O)C3)cn1 (stereo not shown) [Compound 012, 6-[2-(6-Amino-3-pyridyl)ethynyl]-2-[1H-benzimidazol-2-yl-(5-fluoro-2-hydroxy-phenyl)methyl]isoindolin-1-one] | 6 | 620 | 10 | 48
O=C1c2cc(C#CCN3CCS(=O)(=O)CC3)ccc2CN1C(c1nc2ccccc2[nH]1)c1cc(F)ccc1O (stereo not shown) [Compound 013, 2-[1H-benzimidazol-2-yl-(5-fluoro-2-hydroxy-phenyl)methyl]-6-[3-(1,1-dioxo-1,4-thiazinan-4-yl)prop-1-ynyl]isoindolin-1-one; hydrochloride] | 33 | > 10000 | 260 | 22
CN1CCC2(c3ccc(-c4ccc5c(=O)n(C(c6nc7ccccc7[nH]6)c6cc(F)ccc6O)ccc5c4)cc3)CC2C1 (stereo not shown) [Compound 108, 2-[1H-Benzimidazol-2-yl-(5-fluoro-2-hydroxy-phenyl)methyl]-6-[4-(3-methyl-3-azabicyclo[4.1.0]heptan-6-yl)phenyl]isoquinolin-1-one; dihydrochloride] | 2 |  |  | 5
CN1CCC(c2ccc(-c3ccc4c(=O)n(C(c5nc6ccccc6[nH]5)c5cc(F)ccc5O)ccc4c3)cc2F)CC1 (stereo not shown) [Compound 109, 2-[1H-Benzimidazol-2-yl-(5-fluoro-2-hydroxy-phenyl)methyl]-6-[3-fluoro-4-(1-methyl-4-piperidyl)phenyl]isoquinolin-1-one; dihydrochloride] | 2 |  |  | 4
CN1CCC2(c3ccc(-c4cc(F)c5c(=O)n(C(c6nc7ccccc7[nH]6)c6cc(F)ccc6O)ccc5c4)cc3)CC2C1 (stereo not shown) [Compound 110, 2-[1H-Benzimidazol-2-yl-(5-fluoro-2-hydroxy-phenyl)methyl]-8-fluoro-6-4-(3-methyl-3-azabicyclo[4.1.0]-heptan-6-yl)phenyl]isoquinolin-1-one; dihydrochloride] | 0.6 |  |  | 3

The remaining compounds from weak to strong by IC50 [1], led by results:

IC50 [1] [nM] | IC50 [2, 4] [nM] | IC50 [2, 5] [nM] | IC50 [3] [nM] | SMILES
5 | 5410 | 170 | 42 | CN1CCC(c2ccc(-c3ccc4ncn(C(c5cccc(F)c5)c5nc6ccccc6[nH]5)c(=O)c4n3)cc2)CC1 (stereo not shown) [Compound 008, 3-((1H-Benzo[d]imidazol-2-yl)(3-fluorophenyl)methyl)-6-(4-(1-methylpiperidin-4-yl)phenyl)-pyrido[3,2-d]pyrimidin-4(3H)-one 2,2,2-trifluoroacetate]
4 | 1930 | 20 | 12 | CN1CCC(c2ccc(-c3cnc4c(c3)C(=O)N(C(c3nc5ccccc5[nH]3)c3cc(F)ccc3O)C4)cc2)CC1 (stereo not shown) [Compound 010, 6-[1H-Benzimidazol-2-yl-(5-fluoro-2-hydroxy-phenyl)methyl]-3-[4-(1-methyl-4-piperidyl)phenyl]-7H-pyrrolo[3,4-b]pyridin-5-one]
4 |  |  | 6 | CN1CCC(c2ccc(-c3ccc4c(=O)n(C(c5nc6c(F)cccc6[nH]5)c5cc(F)ccc5O)ccc4c3)cc2)CC1 (stereo not shown) [Compound 102, 2-((4-Fluoro-1H-benzo[d]imidazol-2-yl)(5-fluoro-2-hydroxyphenyl)methyl)-6-(4-(1-methylpiperidin-4-yl)phenyl)isoquinolin-1(2H)-one]
4 |  |  | 14 | [2H]C(c1nc2ccccc2[nH]1)(c1cc(F)ccc1O)n1ccc2cc(-c3ccc(C4CCN(C)CC4)cc3)cc(F)c2c1=O (stereo not shown) [Compound 113, 2-[1H-Benzimidazol-2-yl-deuterio-(5-fluoro-2-hydroxy-phenyl)methyl]-8-fluoro-6-[4-(1-methyl-4-piperidyl)phenyl]isoquinolin-1-one]
2 |  |  | 3 | [2H]C(c1nc2ccccc2[nH]1)(c1cc(F)ccc1O)n1ccc2cc(-c3ccc(C4CCN(C)CC4)cc3)ccc2c1=O (stereo not shown) [Compound 112, 2-[1H-Benzimidazol-2-yl-deuterio-(5-fluoro-2-hydroxy-phenyl)methyl]-6-[4-(1-methyl-4-piperidyl)phenyl]isoquinolin-1-one]
1 | 950 | 20 | 6 | CN1CCC(c2ccc(-c3ccc4c(c3)C(=O)N([C@H](c3nc5ccccc5[nH]3)c3cc(F)ccc3O)C4)cc2)CC1 (single isomer, unassigned) [Compound 023]
0.6 |  |  | 3 | CN1CCC(c2ccc(-c3cc(F)c4c(=O)n(C(c5nc6ccccc6[nH]5)c5cc(F)ccc5O)ccc4c3)cc2F)CC1 (stereo not shown) [Compound 111, 2-[1H-Benzimidazol-2-yl-(5-fluoro-2-hydroxy-phenyl)methyl]-8-fluoro-6-[3-fluoro-4-(1-methyl-4-piperidyl)-phenyl]isoquinolin-1-one; dihydrochloride]
0.4 | 520 | 9 | 1 | CN1CCC(c2ccc(-c3ccc4ncn(C(c5nc6ccccc6[nH]5)c5cc(F)ccc5O)c(=O)c4c3F)cc2F)CC1 (stereo not shown) [Compound 007, 3-[1H-benzimidazol-2-yl-(5-fluoro-2-hydroxy-phenyl)methyl]-5-fluoro-6-[3-fluoro-4-(1-methyl-4-piperidyl)phenyl]quinazolin-4-one; hydrochloride]
